Results reported in patent US20250163104A1, “MACROCYCLIC IMMUNOMODULATORS” (priority 2021, published 2025).

target: T1, human PD-1 / PD-L1-Ig binding on Jurkat cell line over-expressing human PD-1 (Jurkat-PD-1) (Homo sapiens, UniProt Q15116); experiment: Jurkat-PD-1 Cell Binding High-Content Screening Assay (CBA); type: cell-based; settings: Jurkat HPD1_PDL1 IC50, Jurkat-PD-1 cells, PE-labeled PD-L1-Ig 20 nM final
T1 construct: expressed in transfected cells; host or cells: Jurkat
In short: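 Cell-bound PE-labeled PD-L1-Ig (20 nM final, 1 h) measured by high-content imaging after fixation and Hoechst 33342 counterstain. Compound was applied first for 2 h at 37° C. to Jurkat cells over-expressing human PD-1 in DMEM with 10% FCS.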

T1 sequence (Q15116 25-288): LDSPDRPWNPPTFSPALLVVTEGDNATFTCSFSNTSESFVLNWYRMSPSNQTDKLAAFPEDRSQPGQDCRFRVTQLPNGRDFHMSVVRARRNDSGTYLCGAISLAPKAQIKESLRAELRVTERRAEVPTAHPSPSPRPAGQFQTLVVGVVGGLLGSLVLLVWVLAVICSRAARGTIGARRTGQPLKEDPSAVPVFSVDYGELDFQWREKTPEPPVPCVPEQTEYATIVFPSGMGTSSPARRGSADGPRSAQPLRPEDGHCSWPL

Compound | IC50 [µM]
CC(C)C[C@H]1NC(=O)[C@H](CCCN)NC(=O)[C@H](CCCNC(N)=O)NC(=O)[C@H](Cc2ccc(-c3ccccc3)cc2)NC(=O)[C@H](C(C)C)NC(=O)[C@H](Cc2c[nH]c3ccccc23)NC(=O)[C@H](CC(=O)O)NC(=O)[C@H](Cc2ccc(OCC(=O)O)cc2)NC(=O)[C@H](Cc2ccc(OCC(=O)O)cc2)NC(=O)CSC[C@@H](C(=O)N[C@@H](C)C(N)=O)NC(=O)[C@H]([C@@H](C)O)NC(=O)[C@H](C(C)C)NC(=O)[C@H](CC2CCCCC2)NC(=O)[C@H](Cc2c[nH]cn2)NC1=O [Compound 1594] | 0.0194
CC(C)C[C@H]1NC(=O)[C@H](CCCN)NC(=O)[C@H](CCC(=O)O)NC(=O)[C@H](Cc2ccc(-c3ccccc3)cc2)NC(=O)[C@H](C(C)C)NC(=O)[C@H](Cc2c[nH]c3ccccc23)NC(=O)[C@H](CC(=O)O)NC(=O)[C@H](Cc2ccc(C(=O)O)cc2)NC(=O)[C@H](Cc2ccncc2)NC(=O)CSC[C@@H](C(=O)N[C@@H](C)C(N)=O)NC(=O)[C@H]([C@@H](C)O)NC(=O)[C@H](C(C)C)NC(=O)[C@H](CC2CCCCC2)NC(=O)[C@H](Cc2c[nH]cn2)NC1=O [Compound 1597] | 0.0202
CC(C)C[C@H]1NC(=O)[C@H](CCCN)NC(=O)[C@H](CCCNC(N)=O)NC(=O)[C@H](Cc2ccc(-c3ccccc3)cc2)NC(=O)[C@H](C(C)C)NC(=O)[C@H](Cc2c[nH]c3ccccc23)NC(=O)[C@H](CC(=O)O)NC(=O)[C@H](Cc2ccc(C(=O)O)cc2)NC(=O)[C@H](Cc2ccncc2)NC(=O)CSC[C@@H](C(=O)N[C@@H](C)C(N)=O)NC(=O)[C@H]([C@@H](C)O)NC(=O)[C@H](C(C)C)NC(=O)[C@H](CC2CCCCC2)NC(=O)[C@H](Cc2c[nH]cn2)NC1=O [Compound 1598] | 0.0099
CC(C)C[C@H]1NC(=O)[C@H](CCCN)NC(=O)[C@H](CCCNC(N)=O)NC(=O)[C@H](Cc2ccc(-c3ccccc3)cc2)NC(=O)[C@H](C(C)C)NC(=O)[C@H](Cc2c[nH]c3ccccc23)NC(=O)[C@H](CC(=O)O)NC(=O)[C@H](Cc2ccc(C(=O)O)cc2)NC(=O)[C@H](Cc2ccc(OCC(=O)O)cc2)NC(=O)CSC[C@@H](C(=O)N[C@@H](C)C(N)=O)NC(=O)[C@H]([C@@H](C)O)NC(=O)[C@H](C(C)C)NC(=O)[C@H](CC2CCCCC2)NC(=O)[C@H](Cc2c[nH]cn2)NC1=O [Compound 1602] | 0.0238
CC[C@H](C)[C@@H]1NC(=O)[C@H](Cc2ccc(-c3ccccc3)cc2)NC(=O)[C@H](C(C)C)NC(=O)[C@H](Cc2c[nH]c3ccccc23)NC(=O)[C@H](CC(=O)O)NC(=O)[C@H](Cc2ccncc2)NC(=O)[C@H](Cc2ccc(OCC(=O)O)cc2)NC(=O)CSC[C@@H](C(=O)N[C@@H](C)C(N)=O)NC(=O)[C@H]([C@@H](C)O)NC(=O)[C@H](C(C)C)NC(=O)[C@H](CC2CCCCC2)NC(=O)[C@H](Cc2c[nH]cn2)NC(=O)[C@@H](CC(C)C)NC(=O)[C@H](CCCN)NC1=O [Compound 1604] | 0.0458
CC(C)C[C@H]1NC(=O)[C@H](CCCN)NC(=O)[C@H](CCC(=O)O)NC(=O)[C@H](Cc2ccc(-c3ccccc3)cc2)NC(=O)[C@H](C(C)C)NC(=O)[C@H](Cc2c[nH]c3ccccc23)NC(=O)[C@H](CC(=O)O)NC(=O)[C@H](Cc2ccncc2)NC(=O)[C@H](Cc2ccc(OCC(=O)O)cc2)NC(=O)CSC[C@@H](C(=O)N[C@@H](C)C(N)=O)NC(=O)[C@H]([C@@H](C)O)NC(=O)[C@H](C(C)C)NC(=O)[C@H](CC2CCCCC2)NC(=O)[C@H](Cc2c[nH]cn2)NC1=O [Compound 1605] | 0.0231
CC(C)C[C@H]1NC(=O)[C@H](CCCN)NC(=O)[C@H](CCC(=O)O)NC(=O)[C@H](Cc2ccc(-c3ccccc3)cc2)NC(=O)[C@H](C(C)C)NC(=O)[C@H](Cc2c[nH]c3ccccc23)NC(=O)[C@H](CC(=O)O)NC(=O)[C@H](Cc2ccc(OCC(=O)O)cc2)NC(=O)[C@H](Cc2ccncc2)NC(=O)CSC[C@@H](C(=O)N[C@@H](C)C(N)=O)NC(=O)[C@H]([C@@H](C)O)NC(=O)[C@H](C(C)C)NC(=O)[C@H](CC2CCCCC2)NC(=O)[C@H](Cc2c[nH]cn2)NC1=O [Compound 1609] | 0.0153
CC(C)C[C@H]1NC(=O)[C@H](CCCN)NC(=O)[C@H](CCCNC(N)=O)NC(=O)[C@H](Cc2ccc(-c3ccccc3)cc2)NC(=O)[C@H](C(C)C)NC(=O)[C@H](Cc2c[nH]c3ccccc23)NC(=O)[C@H](CC(=O)O)NC(=O)[C@H](Cc2ccc(OCC(=O)O)cc2)NC(=O)[C@H](Cc2ccncc2)NC(=O)CSC[C@@H](C(=O)N[C@@H](C)C(N)=O)NC(=O)[C@H]([C@@H](C)O)NC(=O)[C@H](C(C)C)NC(=O)[C@H](CC2CCCCC2)NC(=O)[C@H](Cc2c[nH]cn2)NC1=O [Compound 1610] | 0.0215

same assay, conditions: Jurkat-PD-1 cells, PE-labeled PD-L1-Ig 20 nM final; read-out: Jurkat HPD1_PDL1 IC50

IC50 [µM] | Compound
0.0146 | CC(C)C[C@H]1NC(=O)[C@H](CCCN)NC(=O)[C@H](C(C)C)NC(=O)[C@H](Cc2ccc(-c3ccccc3)cc2)NC(=O)[C@H](C(C)C)NC(=O)[C@H](Cc2c[nH]c3ccccc23)NC(=O)[C@H](CC(=O)O)NC(=O)[C@H](Cc2ccc(OCC(=O)O)cc2)NC(=O)[C@H](Cc2ccncc2)NC(=O)CSC[C@@H](C(=O)N[C@@H](C)C(N)=O)NC(=O)[C@H]([C@@H](C)O)NC(=O)[C@H](C(C)C)NC(=O)[C@H](CC2CCCCC2)NC(=O)[C@H](Cc2cnc[nH]2)NC1=O [Compound 1607]
0.0322 | CC[C@H](C)[C@@H]1NC(=O)[C@H](Cc2ccc(-c3ccccc3)cc2)NC(=O)[C@H](C(C)C)NC(=O)[C@H](Cc2c[nH]c3ccccc23)NC(=O)[C@H](CC(=O)O)NC(=O)[C@H](Cc2ccc(OCC(=O)O)cc2)NC(=O)[C@H](Cc2ccncc2)NC(=O)CSC[C@@H](C(=O)N[C@@H](C)C(N)=O)NC(=O)[C@H]([C@@H](C)O)NC(=O)[C@H](C(C)C)NC(=O)[C@H](CC2CCCCC2)NC(=O)[C@H](Cc2cnc[nH]2)NC(=O)[C@@H](CC(C)C)NC(=O)[C@H](CCCN)NC1=O [Compound 1608]
0.0096 | CC(C)C[C@H]1NC(=O)[C@H](CCCN)NC(=O)[C@H](C(C)C)NC(=O)[C@H](Cc2ccc(-c3ccccc3)cc2)NC(=O)[C@H](C(C)C)NC(=O)[C@H](Cc2c[nH]c3ccccc23)NC(=O)[C@H](CC(=O)O)NC(=O)[C@H](Cc2ccncc2)NC(=O)[C@H](CN)NC(=O)CSC[C@@H](C(=O)N[C@@H](C)C(N)=O)NC(=O)[C@H]([C@@H](C)O)NC(=O)[C@H](C(C)C)NC(=O)[C@H](CC2CCCCC2)NC(=O)[C@H](Cc2cnc[nH]2)NC1=O [Compound 1611]
0.0207 | CCCC[C@@H]1NC(=O)[C@H](Cc2ccc(-c3ccccc3)cc2)NC(=O)[C@H](C(C)C)NC(=O)[C@H](Cc2cccc(C)c2)NC(=O)[C@H](CC(=O)O)NC(=O)[C@H](Cc2ccc(C(=O)O)cc2)NC(=O)[C@H](Cc2ccncc2)NC(=O)CSC[C@@H](C(=O)N[C@@H](C)C(N)=O)NC(=O)[C@H]([C@@H](C)O)NC(=O)[C@H](C(C)C)NC(=O)[C@H](CC2CCCCC2)NC(=O)[C@H](CCN)NC(=O)[C@@H](CC(C)C)NC(=O)[C@H](CCCN)NC1=O [Compound 1613]
0.0144 | Cc1cccc(C[C@@H]2NC(=O)[C@H](CC(=O)O)NC(=O)[C@H](Cc3ccc(C(=O)O)cc3)NC(=O)[C@H](Cc3ccncc3)NC(=O)CSC[C@@H](C(=O)N[C@@H](C)C(N)=O)NC(=O)[C@H]([C@@H](C)O)NC(=O)[C@H](C(C)C)NC(=O)[C@H](CC3CCCCC3)NC(=O)[C@H](CCN)NC(=O)[C@@H](CC(C)C)NC(=O)[C@H](CCCN)NC(=O)[C@H](C3CCCCC3)NC(=O)[C@H](Cc3ccc(-c4ccccc4)cc3)NC(=O)[C@H](C(C)C)NC2=O)c1 [Compound 1614]
0.0159 | CCC[C@@H]1NC(=O)[C@H](Cc2ccc(-c3ccccc3)cc2)NC(=O)[C@H](C(C)C)NC(=O)[C@H](Cc2cccc(C)c2)NC(=O)[C@H](CC(=O)O)NC(=O)[C@H](Cc2ccc(C(=O)O)cc2)NC(=O)[C@H](Cc2ccncc2)NC(=O)CSC[C@@H](C(=O)N[C@@H](C)C(N)=O)NC(=O)[C@H]([C@@H](C)O)NC(=O)[C@H](C(C)C)NC(=O)[C@H](CC2CCCCC2)NC(=O)[C@H](CCN)NC(=O)[C@@H](CC(C)C)NC(=O)[C@H](CCCN)NC1=O [Compound 1615]
0.0093 | Cc1cccc(C[C@@H]2NC(=O)[C@H](CC(=O)O)NC(=O)[C@H](Cc3ccc(C(=O)O)cc3)NC(=O)[C@H](Cc3ccncc3)NC(=O)CSC[C@@H](C(=O)N[C@@H](C)C(N)=O)NC(=O)[C@H]([C@@H](C)O)NC(=O)[C@H](C(C)C)NC(=O)[C@H](CC3CCCCC3)NC(=O)[C@H](CCN)NC(=O)[C@@H](CC(C)C)NC(=O)[C@H](CCCN)NC(=O)[C@H](c3ccccc3)NC(=O)[C@H](Cc3ccc(-c4ccccc4)cc3)NC(=O)[C@H](C(C)C)NC2=O)c1 [Compound 1616]
0.0085 | Cc1cccc(C[C@@H]2NC(=O)[C@H](CC(=O)O)NC(=O)[C@H](Cc3ccc(C(=O)O)cc3)NC(=O)[C@H](Cc3ccncc3)NC(=O)CSC[C@@H](C(=O)N[C@@H](C)C(N)=O)NC(=O)[C@H]([C@@H](C)O)NC(=O)[C@H](C(C)C)NC(=O)[C@H](CC3CCCCC3)NC(=O)[C@H](CCN)NC(=O)[C@@H](CC(C)C)NC(=O)[C@H](CCCN)NC(=O)[C@H](C3CC3)NC(=O)[C@H](Cc3ccc(-c4ccccc4)cc3)NC(=O)[C@H](C(C)C)NC2=O)c1 [Compound 1617]
0.0227 | Cc1cccc(C[C@@H]2NC(=O)[C@H](CC(=O)O)NC(=O)[C@H](Cc3ccc(C(=O)O)cc3)NC(=O)[C@H](Cc3ccncc3)NC(=O)CSC[C@@H](C(=O)N[C@@H](C)C(N)=O)NC(=O)[C@H]([C@@H](C)O)NC(=O)[C@H](C(C)C)NC(=O)[C@H](CC3CCCCC3)NC(=O)[C@H](CCN)NC(=O)[C@@H](CC(C)C)NC(=O)[C@H](CCCN)NC(=O)[C@H](C(C)(C)C)NC(=O)[C@H](Cc3ccc(-c4ccccc4)cc3)NC(=O)[C@H](C(C)C)NC2=O)c1 [Compound 1618]
0.0146 | CC[C@@H]1NC(=O)[C@H](Cc2ccc(-c3ccccc3)cc2)NC(=O)[C@H](C(C)C)NC(=O)[C@H](Cc2cccc(C)c2)NC(=O)[C@H](CC(=O)O)NC(=O)[C@H](Cc2ccc(C(=O)O)cc2)NC(=O)[C@H](Cc2ccncc2)NC(=O)CSC[C@@H](C(=O)N[C@@H](C)C(N)=O)NC(=O)[C@H]([C@@H](C)O)NC(=O)[C@H](C(C)C)NC(=O)[C@H](CC2CCCCC2)NC(=O)[C@H](CCN)NC(=O)[C@@H](CC(C)C)NC(=O)[C@H](CCCN)NC1=O [Compound 1619]
